{
  "source": "paper PMC10489980",
  "about": "“Design of Potent and Salt-Insensitive Antimicrobial Branched Peptides” (Polymers, 2023)",
  "format_in_all_cases": "cell-based",
  "key": {"[1]": {"tested_on": "ten test organisms (four Gram-negative bacteria, three Gram-positive bacteria, three fungi)", "source_text": "Ten organisms obtained from the American Type Culture Collection (ATCC; Rockville, MD) were used for antimicrobial assays. Four Gram-negative bacteria included Escherichia coli ATCC 25922, Pseudomonas aeruginosa ATCC 27853, Klebsiella oxytoca ATCC 49131, and Proteus vulgaris ATCC 49132. The three Gram-positive bacteria were Staphylococcus aureus 29213, Micrococcus luteus ATCC 49,732, and Enterococcus faecalis ATCC 29212. The three fungi were Candida albicans ATCC 37092, Candida kefyr ATCC 37095, and Candida tropicalis ATCC 37097. The clinical isolates were obtained from Singapore General Hospital (SGH). […]\nAntimicrobial Assays. […] After additional incubation at 37 °C for 16–24 h, the diameter of the clear zone surrounding the wells (colony-free) was measured under a microscope. Antimicrobial activities were expressed in units (0.1 mm = 1 unit), and the MICs (in µM) were determined from the x-intercepts of the dose-response curves. […]\nThe minimum inhibitory concentrations (MICs) of four series of branched peptides and two standards, tachyplesin-1 and the dendrimer D4R, against four Gram-negative bacteria, three Gram-positive bacteria, and three fungi were determined using a two-stage radial diffusion assay in both low- (without NaCl) and high-salt (with 100 mM NaCl) conditions. […]"}, "[2]": {"tested_on": "Staphylococcus aureus 29213", "conditions": "29213, 3 h", "summary_of_the_method": "(§1)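 High-salt runs added 100 mM NaCl to the underlay gel, which otherwise contained 10 mM sodium phosphate, 0.03% TSB and 0.02% Tween-20 seeded with 1–4 × 10^6 CFU/mL. Colony-free zones around peptide wells after overnight growth gave MICs from dose-response x-intercepts.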"}, "[3]": {"tested_on": "Candida kefyr ATCC 37095", "conditions": "ATCC 37095, 3 h", "summary_of_the_method": "as §1"}, "[4]": {"tested_on": "Micrococcus luteus ATCC 49,732", "conditions": "ATCC 49, 3 h", "summary_of_the_method": "as §1"}, "[5]": {"tested_on": "Klebsiella oxytoca ATCC 49131", "conditions": "ATCC 49131, 3 h", "summary_of_the_method": "as §1"}, "[6]": {"tested_on": "Escherichia coli ATCC 25922", "conditions": "ATCC 25922, 3 h", "summary_of_the_method": "as §1"}, "[7]": {"tested_on": "Enterococcus faecalis ATCC 29212", "conditions": "ATCC 29212, 3 h", "summary_of_the_method": "as §1"}, "[8]": {"tested_on": "Candida tropicalis ATCC 37097", "conditions": "ATCC 37097, 3 h", "summary_of_the_method": "as §1"}, "[9]": {"tested_on": "Candida albicans ATCC 37092", "conditions": "ATCC 37092, 3 h", "summary_of_the_method": "as §1"}, "[10]": {"tested_on": "Proteus vulgaris ATCC 49132", "conditions": "ATCC 49132, 3 h", "summary_of_the_method": "as §1"}, "[11]": {"tested_on": "Pseudomonas aeruginosa ATCC 27853", "conditions": "ATCC 27853, 3 h", "summary_of_the_method": "as §1"}},
  "note": "Residues, ends and D or L forms follow the SMILES beside them.",
  "data": [
    {"smiles": "CC(C)C[C@H](NC(=O)[C@H](CCCNC(=N)N)NC(=O)[C@H](CCCNC(=N)N)NC(=O)[C@@H](N)Cc1ccc(O)cc1)C(=O)NCCCC[C@H](NC(=O)[C@H](CC(C)C)NC(=O)[C@H](CCCNC(=N)N)NC(=O)[C@H](CCCNC(=N)N)NC(=O)[C@@H](N)Cc1ccc(O)cc1)C(=O)NCCCC[C@H](NC(=O)[C@H](CCCCNC(=O)[C@H](CC(C)C)NC(=O)[C@H](CCCNC(=N)N)NC(=O)[C@H](CCCNC(=N)N)NC(=O)[C@@H](N)Cc1ccc(O)cc1)NC(=O)[C@H](CC(C)C)NC(=O)[C@H](CCCNC(=N)N)NC(=O)[C@H](CCCNC(=N)N)NC(=O)[C@@H](N)Cc1ccc(O)cc1)C(N)=O", "note": "[D4Y] (HELM PEPTIDE1{Y.R.R.L.K.K.[am]}|PEPTIDE2{Y.R.R.L}|PEPTIDE3{Y.R.R.L.K}|PEPTIDE4{Y.R.R.L}$PEPTIDE1,PEPTIDE2,5:R3-4:R2|PEPTIDE3,PEPTIDE4,5:R3-4:R2|PEPTIDE1,PEPTIDE3,6:R3-5:R2$$$V2.0; N-terminus and C-terminus assumed)", "values": [
      {"measurement": "MIC in four other organisms, high-salt", "setting": "[1]; 3 h", "result": "< 10", "unit": "µM"},
      {"measurement": "antimicrobial activity under high-salt conditions against six of ten tested organisms", "setting": "[1]; radial diffusion assay, 1% agarose, 10 mM phosphate buffer with 100 mM NaCl, result in words", "result": "inactive"}
    ]},
    {"smiles": "CC(C)C[C@H](NC(=O)[C@@H](N)CCCNC(=N)N)C(=O)N[C@@H](Cc1ccc(O)cc1)C(=O)N[C@@H](CCCNC(=N)N)C(=O)NCCC[C@H](NC(=O)[C@H](CCCNC(=O)[C@H](CCCNC(=N)N)NC(=O)[C@H](Cc1ccc(O)cc1)NC(=O)[C@H](CC(C)C)NC(=O)[C@@H](N)CCCNC(=N)N)NC(=O)[C@H](CCCNC(=O)[C@H](CCCNC(=N)N)NC(=O)[C@H](Cc1ccc(O)cc1)NC(=O)[C@H](CC(C)C)NC(=O)[C@@H](N)CCCNC(=N)N)NC(=O)[C@H](CCCNC(=O)[C@H](CCCNC(=N)N)NC(=O)[C@H](Cc1ccc(O)cc1)NC(=O)[C@H](CC(C)C)NC(=O)[C@@H](N)CCCNC(=N)N)NC(=O)[C@H](CCCNC(=N)N)NC(=O)[C@H](Cc1ccc(O)cc1)NC(=O)[C@H](CC(C)C)NC(=O)[C@@H](N)CCCNC(=N)N)C(N)=O", "note": "[O5R] (HELM PEPTIDE1{R.L.Y.R.[Orn].[Orn].[Orn].[Orn].[am]}|PEPTIDE2{R.L.Y.R}|PEPTIDE3{R.L.Y.R}|PEPTIDE4{R.L.Y.R}|PEPTIDE5{R.L.Y.R}$PEPTIDE1,PEPTIDE2,8:R3-4:R2|PEPTIDE1,PEPTIDE3,7:R3-4:R2|PEPTIDE1,PEPTIDE4,6:R3-4:R2|PEPTIDE1,PEPTIDE5,5:R3-4:R2$$$V2.0; N-terminus assumed)", "values": [
      {"measurement": "MIC, S. aureus, H-Salt", "setting": "[2]", "result": 6.5, "unit": "µM"},
      {"measurement": "MIC, S. aureus, L-Salt", "setting": "[2]", "result": 5.4, "unit": "µM"},
      {"measurement": "MIC, C. kefyr, H-Salt", "setting": "[3]", "result": 0.7, "unit": "µM"},
      {"measurement": "MIC, C. kefyr, L-Salt", "setting": "[3]", "result": 0.7, "unit": "µM"},
      {"measurement": "MIC, M. luteus, H-Salt", "setting": "[4]", "result": 1.7, "unit": "µM"},
      {"measurement": "MIC, M. luteus, L-Salt", "setting": "[4]", "result": 1.3, "unit": "µM"},
      {"measurement": "MIC, K. oxytoca, H-Salt", "setting": "[5]", "result": 2.4, "unit": "µM"},
      {"measurement": "MIC, K. oxytoca, L-Salt", "setting": "[5]", "result": 1.8, "unit": "µM"},
      {"measurement": "MIC, E. coli, H-Salt", "setting": "[6]", "result": 2.3, "unit": "µM"},
      {"measurement": "MIC, E. coli, L-Salt", "setting": "[6]", "result": 0.9, "unit": "µM"},
      {"measurement": "MIC, E. faecalis, H-Salt", "setting": "[7]", "result": "> 500", "unit": "µM"},
      {"measurement": "MIC, E. faecalis, L-Salt", "setting": "[7]", "result": 10.2, "unit": "µM"},
      {"measurement": "MIC, C. tropicalis, H-Salt", "setting": "[8]", "result": 0.7, "unit": "µM"},
      {"measurement": "MIC, C. tropicalis, L-Salt", "setting": "[8]", "result": 1.1, "unit": "µM"},
      {"measurement": "MIC, C. albicans, H-Salt", "setting": "[9]", "result": 1.5, "unit": "µM"},
      {"measurement": "MIC, C. albicans, L-Salt", "setting": "[9]", "result": 0.9, "unit": "µM"},
      {"measurement": "MIC, P. vulgaris, H-Salt", "setting": "[10]", "result": 19.2, "unit": "µM"},
      {"measurement": "MIC, P. vulgaris, L-Salt", "setting": "[10]", "result": 8.1, "unit": "µM"},
      {"measurement": "MIC, P. aeruginosa, H-Salt", "setting": "[11]", "result": 3.1, "unit": "µM"},
      {"measurement": "MIC, P. aeruginosa, L-Salt", "setting": "[11]", "result": 2.0, "unit": "µM"}
    ]}
  ]
}
